Source: US8143212B2 (Vicuron Pharmaceuticals Inc., priority 2002, dated 2012)

How the values were obtained:
[1] = tested on: Staph. aureus; assay: ED50 against Staph. aureus murine septicaemias (Table 2); format: in vivo; details: Staphylococcus aureus, MSSA, sc, 10 min
[2] = tested on: P aeruginosas; assay: MIC, microbiological activity (Table 3); format: cell-based; details: L 4 P aeruginosas ATCC10145; read-out: MIC
[3] = Rat mass balance study; details: rats
Procedure: Excreta and more than 40 different tissues were collected through 70 days post-administration, and the tissue distribution and pharmacokinetics of drug-derived radioactivity were determined.
Following dose administration, urine and feces were collected at 24 hour intervals to 14, 36, and 70 days after the dose (3 rats/final collection time). Water and methanol cage washes were also collected. Carcasses were analyzed at the end of the collection period. All samples were analyzed for total radioactivity content by liquid scintillation counting (LSC).

[4] = tested on: S. aureus; assay: Murine thigh-infection model (time kill, dosing regimen, PK/PD; Tables 31, 32); details: for 1 log kill mg/kg / 2 log kill mg/kg: total dose over 6 days;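 for all read-outs here: mouse thigh infection, bacterial counts per thigh after therapy, dose-response curves fitted with a maximum effect model to give static and 1 or 2 log kill exposures, mean of 4 thighs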
Procedure: The murine thigh-infection model was used for all organisms throughout the various studies. In this well-established model, approximately 10^6 Cfu of the study organisms are injected into one or both thighs (in 0.1 ml) two hours before starting therapy. The number of organisms in the thigh at the start of therapy in the following studies varied from 10^7.15-7.59 cfu/thigh.
Each point represents the mean of 4 thighs. Five dose levels, ranging 16-fold were used. The dose levels used in the study against S. aureus ranged from 5 to 80 mg/kg.
In these studies, multiple dosing regimens varying the dose and dosage interval were administered intraperitoneally in 0.2 ml volumes to groups of mice for 144 h (6 days). The dosing intervals chosen were 12, 24, 36, and 72 hours. Five different doses (two-fold increases) were used. Study against S. aureus utilized total dose (mg/kg/6d) levels ranging from 30 to 480 mg/kg/6d. […] Each point represents the mean of 4 thighs.
Each of the dose-response curves was also mathematically characterized using a maximum effect model. […] From these parameters we could then calculate the dose required to produce a net bacteriostatic effect over the 144 hour treatment period as well as the doses necessary to produce a 1 and 2 log-reduction in organism burden.
We determined which PK/PD parameter correlated best with efficacy by relating the number of bacteria in thigh at the end of 144 hours of therapy with [1] the peak/MIC ratio, [2] the AUC/MIC ratio, and [3] the percentage of the dosing interval that serum levels exceed the MIC for each of the dosage regimens studied. The PK/PD parameter values for those doses not specifically studied were extrapolated from the values of the nearest studied doses. […] Each point represents the mean of four thighs. […] The data illustrated in these figures were also analyzed by the same maximum dose-response model mentioned above, except that the different PK/PD parameters were used in place of the dose. The R^2 represents the coefficient of determination observed for the relationship between efficacy and each PK/PD parameter.

[5] = Mean ± SD of S. aureus strains, q 24 h regimen
[6] = Mean ± SD of S. aureus strains, q 72 h regimen

## CN[C@H]1C(=O)N[C@@H]2Cc3ccc(cc3)Oc3cc4cc(c3O[C@@H]3O[C@H](C(=O)O)[C@@H](O)[C@H](O)[C@H]3NC(=O)CCCCCCCCC(C)C)Oc3ccc(cc3Cl)[C@@H](O)[C@@H]3NC(=O)[C@H](NC(=O)[C@@H]4NC(=O)[C@@H](NC2=O)c2cc(cc(O)c2Cl)Oc2cc1ccc2O)c1ccc(O)c(c1)-c1c(O[C@H]2O[C@H](CO)[C@@H](O)[C@H](O)[C@@H]2O)cc(O)cc1[C@@H](C(=O)NCCCN(C)C)NC3=O [Dalbavancin]
[1]
  ED50: 0.05 mg/kg
[2]
  MIC: > 32 µg/mL
[3]
  plasma t1/2: approximately 1 week
[4]; MRSA, q 24 h regimen
  1 Log Kill f24AUC/MBC: 109
  1 Log Kill f24AUC/MIC: 452
  1 Log Kill mg/kg/24 h: 45.3 mg/kg/24 h
  2 Log Kill f24AUC/MBC: 125
  2 Log Kill f24AUC/MIC: 519
  2 Log Kill mg/kg/24 h: 53.5 mg/kg/24 h
  Static Effect f24AUC/MBC: 90
  Static Effect f24AUC/MIC: 374
  Static Effect mg/kg/24 h: 37.7 mg/kg/24 h
[4]; MRSA, q 72 h regimen
  1 Log Kill f24AUC/MBC: 48.8
  1 Log Kill f24AUC/MIC: 202
  1 Log Kill mg/kg/24 h: 62 mg/kg/24 h
  2 Log Kill f24AUC/MBC: 70
  2 Log Kill f24AUC/MIC: 292
  2 Log Kill mg/kg/24 h: 85 mg/kg/24 h
  Static Effect f24AUC/MBC: 35.3
  Static Effect f24AUC/MIC: 147
  Static Effect mg/kg/72 h: 43 mg/kg/72 h
[4]; [5]
  1 Log Kill f24AUC/MBC: 86.6 ± 27.6
  1 Log Kill f24AUC/MIC: 268 ± 119
  1 Log Kill mg/kg/24 h: 43.7 ± 9.5 mg/kg/24 h
  2 Log Kill f24AUC/MBC: 110 ± 42
  2 Log Kill f24AUC/MIC: 332 ± 131
  2 Log Kill mg/kg/24 h: 55 ± 14 mg/kg/24 h
  Static Effect f24AUC/MBC: 101 ± 72
  Static Effect f24AUC/MIC: 265 ± 143
  Static Effect mg/kg/24 h: 37.1 ± 9.1 mg/kg/24 h
[4]; [6]
  1 Log Kill f24AUC/MBC: 75.9 ± 45.2
  1 Log Kill f24AUC/MIC: 213 ± 8.14
  1 Log Kill mg/kg/24 h: 94 ± 46 mg/kg/24 h
  2 Log Kill f24AUC/MBC: 101 ± 61
  2 Log Kill f24AUC/MIC: 266 ± 88
  2 Log Kill mg/kg/24 h: 120 ± 54 mg/kg/24 h
  Static Effect f24AUC/MBC: 55 ± 31
  Static Effect f24AUC/MIC: 160 ± 67
  Static Effect mg/kg/72 h: 72 ± 41 mg/kg/72 h
[4]; SA25923, q 24 h regimen
  1 Log Kill f24AUC/MBC: 60
  1 Log Kill f24AUC/MIC: 250
  1 Log Kill mg/kg/24 h: 51.2 mg/kg/24 h
  2 Log Kill f24AUC/MBC: 69.3
  2 Log Kill f24AUC/MIC: 289
  2 Log Kill mg/kg/24 h: 60 mg/kg/24 h
  Static Effect f24AUC/MBC: 52
  Static Effect f24AUC/MIC: 216
  Static Effect mg/kg/24 h: 42.7 mg/kg/24 h
[4]; SA25923, q 72 h regimen
  1 Log Kill f24AUC/MBC: 76.1
  1 Log Kill f24AUC/MIC: 317
  1 Log Kill mg/kg/24 h: 185 mg/kg/24 h
  2 Log Kill f24AUC/MBC: 88.1
  2 Log Kill f24AUC/MIC: 367
  2 Log Kill mg/kg/24 h: 214 mg/kg/24 h
  Static Effect f24AUC/MBC: 66
  Static Effect f24AUC/MIC: 274
  Static Effect mg/kg/72 h: 160 mg/kg/72 h
[4]; SA29213, q 24 h
  1 log kill mg/kg: 267 mg/kg
[4]; SA29213, q 36 h
  1 log kill mg/kg: 36 mg/kg
  2 log kill mg/kg: 122 mg/kg
[4]; SA29213, q 72 h
  1 log kill mg/kg: 31 mg/kg
  2 log kill mg/kg: 128 mg/kg
[4]; SA31005, q 24 h regimen
  Static Effect f24AUC/MBC: 242
  Static Effect f24AUC/MIC: 483
  Static Effect mg/kg/24 h: 49.3 mg/kg/24 h
[4]; SA31005, q 72 h regimen
  1 Log Kill f24AUC/MBC: 163
  1 Log Kill f24AUC/MIC: 325
  1 Log Kill mg/kg/24 h: 94.6 mg/kg/24 h
  2 Log Kill f24AUC/MBC: 217
  2 Log Kill f24AUC/MIC: 364
  2 Log Kill mg/kg/24 h: 127 mg/kg/24 h
  Static Effect f24AUC/MBC: 112
  Static Effect f24AUC/MIC: 223
